Laboratory results as given in patent publication US6559151B2, “6-(2-trifluoromethyl-phenyl)-triazolopyrimidines” (BASF Aktiengesellschaft, priority 2000, dated 2003).
In brackets after ≈: the same amount, converted by molar mass.

Columns and labels:
Assay type in all cases: cell-based
Rhizoctonia solani = test: In vitro fungicidal activity against Rhizoctonia solani (mycelial growth inhibition rating); design: key: 0: None; 3: slight; 5: moderate; 7: severe; 9: complete; conditions: 25 ppm; 24-cell-well plates; 3-7 days of incubation
Method: C Evaluation of In vitro Fungicidal Activity against Rhizoctonia solani Test compounds are dissolved in acetone to give a concentration of 25 ppm and added to individual cell walls (24-cell-well-plates, Corning), which were previously filled with a suspension of ground fungal mycelium in a chemically defined growth medium. After 3-7 days of incubation, inhibition of mycelial growth is recorded using the following scale: The data obtained are shown in Table IV. Rating scale [table]

Alternaria solani = test: MIC serial dilution test, Alternaria solani; conditions: V8 juice medium, 6-12 days at 18-25° C., visual
Cochliobulus sativus = test: MIC serial dilution test, Cochliobulus sativus; conditions: V8 juice medium, 6-12 days at 18-25° C., visual
Botrytis cinerea = test: MIC serial dilution test, Botrytis cinerea; conditions: V8 juice medium, 6-12 days at 18-25° C., visual
[1] = system: Magnaporthe grisea f. sp. Oryzae; conditions: total inhibition of mycelial growth; V8 juice medium; 6-12 days at 18-25° C.; visual

| Compound | Rating (inhibition of mycelial growth) (Rhizoctonia solani) | MIC (Minimum Inhibitory Concentration) ALTEBO (Alternaria solani) [µg/mL] | MIC (Minimum Inhibitory Concentration) COCHSA (Cochliobulus sativus) [µg/mL] | MIC (Minimum Inhibitory Concentration) BOTRCI (Botrytis cinerea) | MIC (Minimum Inhibitory Concentration) PYRIOR [1] [µg/mL] |
| --- | --- | --- | --- | --- | --- |
| Nc1c(-c2cc(F)ccc2C(F)(F)F)c(Cl)nc2ncnn12 [Compound I-7] | 0 | – | – | – | – |
| Fc1ccc(C(F)(F)F)c(-c2c(Cl)nc3ncnn3c2NC2CCCC2)c1 [Compound I-2, [5-chloro-6-(5-fluoro-2-trifluoromethyl-phenyl)-[1,2,4]triazolo[1,5-α]pyrimidin-7-yl]-cyclopentyl-amine] | 7 | 3.13 (≈ 7.83 µM) | 3.13 (≈ 7.83 µM) | 25 µg/mL (≈ 62.5 µM) | 0.78 (≈ 1.95 µM) |
| Fc1ccc(C(F)(F)F)c(-c2c(Cl)nc3ncnn3c2NC2CC3CCC2C3)c1 (centres unmarked) [Compound I-3] | 5 | 0.78 (≈ 1.83 µM) | 6.25 (≈ 14.7 µM) | 25 µg/mL (≈ 58.7 µM) | 12.5 (≈ 29.4 µM) |
| CCC(C)Nc1c(-c2cc(F)ccc2C(F)(F)F)c(Cl)nc2ncnn12 (stereo not drawn) [Compound I-5, [5-chloro-6-(5-fluoro-2-trifluoromethyl-phenyl)-[1,2,4]triazolo[1,5-α]pyrimidin-7-yl]-N-(1-methyl-propyl)-amine] | 7 | 6.25 (≈ 16.1 µM) | 12.5 (≈ 32.2 µM) | 12.5 µg/mL (≈ 32.2 µM) | 0.78 (≈ 2.01 µM) |
| CCN(CC)c1c(-c2cc(F)ccc2C(F)(F)F)c(Cl)nc2ncnn12 [Compound I-4, N-[5-chloro-6-(5-fluoro-2-trifluoromethyl-phenyl)-[1,2,4]triazolo[1,5-α]pyrimidin-7-yl]-N,N-diethyl-amine] | 7 | >100 | 12.5 (≈ 32.2 µM) | 25 µg/mL (≈ 64.5 µM) | 0.78 (≈ 2.01 µM) |
| Fc1ccc(C(F)(F)F)c(-c2c(Cl)nc3ncnn3c2NCC(F)(F)F)c1 [Compound I-6] | 7 | – | – | – | – |
| CC(C)Nc1c(-c2cc(F)ccc2C(F)(F)F)c(Cl)nc2ncnn12 [Compound I-1, [5-chloro-6-(5-fluoro-2-trifluoromethyl-phenyl)-[1,2,4]triazolo[1,5-α]pyrimidin-7-yl]-isopropyl-amine] | 7 | 100 (≈ 268 µM) | 25 (≈ 66.9 µM) | 50 µg/mL (≈ 134 µM) | 1.56 (≈ 4.17 µM) |
| CC1CCN(c2c(-c3cc(F)ccc3C(F)(F)F)c(Cl)nc3ncnn23)CC1 [Example 5, 5-Chloro-6-(5-fluoro-2-trifluorome-thylphenyl)-7-(4-methyl-piperidin-1-yl)-[1,2,4]triazolo[1,5-α]pyrimidine] | 7 | 0.2 (≈ 0.483 µM) | 0.78 (≈ 1.88 µM) | 0,78 μg/ml | <0.05 |
